Data from PubChem BioAssay AID248 (DTP/NCI, 2004).
Where “and” joins values, the source holds several entries; their conditions need not be identical. Equal entries are not always repeated. Inconclusive results and toxic doses are left out.

System: L1210 leukemia ip in BDF1 mice, survival T/C
Experiment: NCI In Vivo Anticancer Drug Screen. Data for tumor model L1210 Leukemia (intraperitoneal) in B6D2F1 (BDF1) mice
Details: endpoint: mean survival time, higher = longer survival
How it was run: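 Antitumor effect is assessed in tumor-bearing animals. Survival in the compound arm is compared with a vehicle-dosed control arm and expressed as their quotient.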

[1] = dose: 100.0 mg/kg/injection, schedule: Q01DX009 (ip), vehicle: Klucel (hydroxypropylcellulose) (HPC)
[2] = dose: 100.0 mg/kg/injection, schedule: Q04DX003 (ip), vehicle: Klucel (hydroxypropylcellulose) (HPC)
[3] = dose: 200.0 mg/kg/injection, schedule: Q04DX003 (ip), vehicle: Klucel (hydroxypropylcellulose) (HPC)

**Q.** For `CCCCCCCCCCCCBr`, which T/C (dose: 100.0 mg/kg/injection, schedule: Q04DX002 (ip), vehicle: saline with Tween-80) is on record?
**A.** 102 % of control

**Q.** What about the T/C (dose: 200.0 mg/kg/injection, schedule: Q04DX002 (ip), vehicle: saline with Tween-80) of the same compound?
**A.** 97 % of control

**Q.** And the T/C (dose: 400.0 mg/kg/injection, schedule: Q04DX002 (ip), vehicle: saline with Tween-80)?
**A.** 102 % of control

**Q.** `Cc1c(O)c(Br)c(-c2c(C)c(Br)c(C)c([N+](=O)[O-])c2C)c(O)c1Br` was tested. Which T/C (dose: 75.0 mg/kg/injection, schedule: Q04DX003 (ip), vehicle: Klucel (hydroxypropylcellulose) (HPC)) did it give?
**A.** 103 % of control

**Q.** What about the T/C (dose: 150.0 mg/kg/injection, schedule: Q04DX003 (ip), vehicle: Klucel (hydroxypropylcellulose) (HPC)) of the same compound?
**A.** 93 % of control

**Q.** And the T/C (dose: 300.0 mg/kg/injection, schedule: Q04DX003 (ip), vehicle: Klucel (hydroxypropylcellulose) (HPC))?
**A.** 88 % of control

**Q.** Which T/C (dose: 3.12 mg/kg/injection, schedule: Q01DX009 (ip), vehicle: distilled water + Tween-80) does the source give for `NC(Cc1ccc(N(CCCl)Cc2ccccc2)cc1)C(=O)O` (configuration not stated) here?
**A.** 97 % of control

**Q.** What about the T/C (dose: 6.25 mg/kg/injection, schedule: Q01DX009 (ip), vehicle: distilled water + Tween-80) of the same compound?
**A.** 107 % of control

**Q.** What about the T/C (dose: 12.5 mg/kg/injection, schedule: Q01DX009 (ip), vehicle: distilled water + Tween-80) of the same compound?
**A.** 96 % of control

**Q.** What about the T/C (dose: 25.0 mg/kg/injection, schedule: Q01DX009 (ip), vehicle: distilled water + Tween-80) of the same compound?
**A.** 113 % of control

**Q.** And the T/C (dose: 100.0 mg/kg/injection, schedule: Q01DX009 (ip), vehicle: distilled water + Tween-80)?
**A.** 97 % of control

**Q.** Which results are given for `O=C(Nc1ccccc1F)c1ccccc1`?
**A.** T/C [1]: 97 % of control; T/C [2]: 96 % of control; T/C (dose: 200.0 mg/kg/injection, schedule: Q01DX009 (ip), vehicle: Klucel (hydroxypropylcellulose) (HPC)): 87 % of control; T/C [3]: 98 % of control; T/C (dose: 400.0 mg/kg/injection, schedule: Q01DX009 (ip), vehicle: Klucel (hydroxypropylcellulose) (HPC)): 89 % of control; T/C (dose: 400.0 mg/kg/injection, schedule: Q04DX003 (ip), vehicle: Klucel (hydroxypropylcellulose) (HPC)): 104 % of control

**Q.** Which results are given for `N#Cc1cnc(N)cc1N`?
**A.** T/C (dose: 25.0 mg/kg/injection, schedule: Q01DX009 (ip), vehicle: Klucel (hydroxypropylcellulose) (HPC)): 96 % of control; T/C (dose: 25.0 mg/kg/injection, schedule: Q04DX003 (ip), vehicle: Klucel (hydroxypropylcellulose) (HPC)): 97 % of control; T/C (dose: 50.0 mg/kg/injection, schedule: Q01DX009 (ip), vehicle: Klucel (hydroxypropylcellulose) (HPC)): 98 % of control; T/C (dose: 50.0 mg/kg/injection, schedule: Q04DX003 (ip), vehicle: Klucel (hydroxypropylcellulose) (HPC)): 100 % of control; T/C [1]: 104 % of control; T/C [2]: 101 % of control and 104 % of control; T/C [3]: 113 % of control

**Q.** Which results are given for `O=c1cc(-c2ccccc2)c2ccc(O)cc2o1`?
**A.** T/C (dose: 100.0 mg/kg/injection, schedule: Q04DX003 (ip), vehicle: saline with Tween-80): 95 % of control; T/C (dose: 200.0 mg/kg/injection, schedule: Q04DX003 (ip), vehicle: saline with Tween-80): 101 % of control; T/C (dose: 400.0 mg/kg/injection, schedule: Q04DX003 (ip), vehicle: saline with Tween-80): 93 % of control

**Q.** What does the source list for `COc1cc(CC2c3cccc(Oc4ccc(C)cc4)c3CCN2C)ccc1Oc1ccc(C)cc1` (configuration not stated)?
**A.** T/C (dose: 100.0 mg/kg/injection, schedule: Q04DX002 (ip), vehicle: other): 96 % of control; T/C (dose: 200.0 mg/kg/injection, schedule: Q04DX002 (ip), vehicle: other): 100 % of control; T/C (dose: 400.0 mg/kg/injection, schedule: Q04DX002 (ip), vehicle: other): 100 % of control

**Q.** Which T/C (dose: 12.5 mg/kg/injection, schedule: Q04DX002 (ip), vehicle: saline with Tween-80) does the source give for `C1CCC2[N-]CC3CCCCC3[N-]CC3CCCCC3[N-]CC3CCCCC3[N-]CC2C1.[Ni+2].[O-][Cl+3]([O-])([O-])O` (configuration not stated) here?
**A.** 101 % of control

**Q.** And the T/C (dose: 25.0 mg/kg/injection, schedule: Q04DX002 (ip), vehicle: saline with Tween-80)?
**A.** 108 % of control

**Q.** What about the T/C (dose: 50.0 mg/kg/injection, schedule: Q04DX002 (ip), vehicle: saline with Tween-80) of the same compound?
**A.** 111 % of control

**Q.** For `O=C(Nc1ccc(NC(=O)c2ccc(C3=NCCCN3)cc2)cc1)Nc1ccc(C2=NCCCN2)cc1`, which T/C (dose: 0.62 mg/kg/injection, schedule: Q01DX Z (ip), vehicle: carboxymethylcellulose (CMC)) is on record?
**A.** 103 % of control

**Q.** What about the T/C (dose: 1.25 mg/kg/injection, schedule: Q01DX Z (ip), vehicle: carboxymethylcellulose (CMC)) of the same compound?
**A.** 110 % of control

**Q.** And the T/C (dose: 2.5 mg/kg/injection, schedule: Q01DX Z (ip), vehicle: carboxymethylcellulose (CMC))?
**A.** 105 % of control

**Q.** And the T/C (dose: 5.0 mg/kg/injection, schedule: Q01DX Z (ip), vehicle: carboxymethylcellulose (CMC))?
**A.** 174 % of control

**Q.** And the T/C (dose: 6.0 mg/kg/injection, schedule: Q01DX Z (ip), vehicle: carboxymethylcellulose (CMC))?
**A.** 153 % of control

**Q.** What about the T/C (dose: 8.0 mg/kg/injection, schedule: Q01DX Z (ip), vehicle: carboxymethylcellulose (CMC)) of the same compound?
**A.** 185 % of control

**Q.** And the T/C (dose: 21.0 mg/kg/injection, schedule: Q01DX Z (ip), vehicle: carboxymethylcellulose (CMC))?
**A.** 113 % of control

**Q.** What about the T/C (dose: 62.0 mg/kg/injection, schedule: Q01DX Z (oral), vehicle: carboxymethylcellulose (CMC)) of the same compound?
**A.** 91 % of control

**Q.** What about the T/C (dose: 125.0 mg/kg/injection, schedule: Q01DX Z (oral), vehicle: carboxymethylcellulose (CMC)) of the same compound?
**A.** 102 % of control

**Q.** And the T/C (dose: 250.0 mg/kg/injection, schedule: Q01DX Z (oral), vehicle: carboxymethylcellulose (CMC))?
**A.** 98 % of control

**Q.** And the T/C (dose: 500.0 mg/kg/injection, schedule: Q01DX Z (oral), vehicle: carboxymethylcellulose (CMC))?
**A.** 100 % of control

**Q.** How did the T/C (dose: 100.0 mg/kg/injection, schedule: Q01DX001 (ip), vehicle: other) turn out when `CCOC(=O)C(COC)C(C(=O)CC)C(=O)OCC` (configuration not stated) was run?
**A.** 102 % of control

**Q.** What about the T/C (dose: 200.0 mg/kg/injection, schedule: Q01DX001 (ip), vehicle: other) of the same compound?
**A.** 89 % of control

**Q.** What about the T/C (dose: 400.0 mg/kg/injection, schedule: Q01DX001 (ip), vehicle: other) of the same compound?
**A.** 96 % of control
